Laboratory results reported in patent US6596258B1, “Method of obtaining extracellular and intracellular pH images and spectra by magnetic resonance using extrinsic indicators containing 1H or 19F” (Universidad Nacional de Educacion a Distancia, priority 1997, dated 2003).

Legend:
[1] = tested on: NIH 3T3 mouse fibroblasts; experiment: Toxicity in cell culture (cell survival after 72 h incubation); settings: for Cell survival (average optical density, an index of cell number): NIH 3T3, mean±SD of four determinations
Method: NIH 3T3 mouse fibroblasts were grown in Dulbecco modified essential medium (DMEM) supplemented with 10% fetal calf serum (FCS, Hyclone, Logan, Utah, USA).
Results represent the mean±SD of four determinations from different culture dishes at each concentration.

Male Swiss albino mice = experiment: Toxicity (LD50) in intact animals, intraperitoneal, method of Miller and Tainter; settings: doses as high as 3 g/Kg of body weight
Description: At least seven different doses, each one of then administered to six mice, which were kept in different cages, were used for each compound.

[2] = Plasma kinetics after intravenous (jugular vein) injection, 1H NMR of plasma; settings: male Wistar rats
[3] = Kinetics of tissue uptake after intravenous injection, 1H NMR of perchloric acid organ extracts; settings: Wistar rats, 1 mmol intravenous
[4] = injection into right jugular vein

SMILES | Cell survival (average optical density, an index of cell number) ([1]; 1.0 mM compound) | Cell survival (average optical density, an index of cell number) ([1]; 5.0 mM compound) | Cell survival (average optical density, an index of cell number) ([1]; 10.0 mM compound) | Cell survival (average optical density, an index of cell number) ([1]; 20.0 mM compound) | Toxicity in cell culture (in words) ([1]; NIH 3T3, 0 to 20 mM) | Toxicity in intact animals (in words) (Male Swiss albino mice) | Clearance from plasma, t1/2 [2, 4] | Highest concentration in plasma [2, 4] | Time after injection at which highest plasma concentration was attained [2, 4] | Signs of toxicity during the pharmacokinetic experiment ([2]; intravenous injection) | Concentration reached in brain [3] | Concentration reached in heart [3] | Concentration reached in kidney [3] | Concentration reached in liver [3] | Concentration reached in skeletal muscle [3] | Time of peak concentration in kidney [3] | Time of peak concentration in skeletal muscle [3]
CCOC(=O)CC(C(=O)O)n1ccnc1 (racemic) [Compound 9, (±)-3-(etoxycarbonyl)-2-imidazol-1-ilpropionic acid] | 1.68 ± 0.04 | 1.38 ± 0.06 | 1.52 ± 0.13 | 1.54 ± 0.09 | did not exhibit any toxicity | did not exhibit any toxicity | 6 min | 6.6 mM | 1 min | No signs of toxicity were detected | absent | < 0.5 μmol/g of body weight | 13.9 μmol/g of body weight | < 0.2 μmol/g of body weight | 5.8 μmol/g of body weight | 10 min | 20 min
c1c[nH]cn1 [Compound 1, Imidazol] | – | – | – | – | – | – | – | – | – | – | – | – | 12.1 μmol/g of body weight | – | 5.3 μmol/g of body weight | 30 min | 10 to 20 min
